The results in this text go back to patent US20090221530A1, “Relaxase Modulators and Methods of Using Same” (priority 2005, published 2009).

As usually defined, the EC50 is the concentration that produces a half-maximal response. Usually MIC stands for the lowest concentration found to suppress growth.

Format in all cases: cell-based, E. coli
Experiment [1] has as its system F+ donor cells. The experiment can be described thus: microbe, parasite or virus in culture. The note with it: for EC50: Escherichia coli, 100 min, vs. F+ donor cells, read-out: 100 minute EC50; for Selectivities by EC50, Transconj.: listed as vs. F+ donor cells relative to transconjugants. An excerpt: (§1) A 96-well fluorescence-based assay using oxygen biosensor plates (Becton Dickinson, Franklin Lakes, N.J., U.S.A.) was employed to monitor bacterial cell survival. FIG. 7 schematically illustrates the assay mechanism of action. […] In the absence of viable bacteria, however, no fluorescence emission is detected because the fluorophore is quenched by free oxygen. The assay can further be utilized to measure conjugative DNA transfer.
(§2) Relaxase-dependent cell survival was examined by placing cultures of F+/TraI+ E. coli cells (with antibiotic resistance, e.g., Ab^r1, on a non-conjugative plasmid) within wells and exposing them to putative inhibitory compounds. […] Negative controls for this assay can be F− (Ab^r2) cells and F+ cells (Ab^r1) containing either no F plasmid relaxase (TraI) gene, or a TraI harboring catalytic tyrosine to phenylalanine mutations; in both cases, these control cells should be resistant to relaxase-dependent cell toxicity. […] Fluorescence can be measured using a PHERASTAR™ fluorescence plate reader (BMG LABTECH, Offenburg, Germany) over 8 hours time.

The subject of experiment [2] is F− recipient cells. The experiment can be described thus: microbe, parasite or virus in culture. The note with it: for EC50: Escherichia coli, 100 min, vs. F− recipient cells, read-out: 100 minute EC50; for Selectivities by EC50, Donors: listed as vs. F− recipient cells relative to donors; for Selectivities by EC50, Transconj.: listed as vs. F− recipient cells relative to transconjugants.
Source text: as §1, §2

Experiment [3] concerns transconjugants. The experiment can be described thus: microbe, parasite or virus in culture. The conditions noted are these: for EC50: Escherichia coli, 100 min, read-out: 100 minute EC50, vs. transconjugants; for Selectivities by EC50, Donors: listed as vs. transconjugants relative to donors.
Source text: as §1, §2

The subject of experiment [4] is F+ or F− cells. The experiment can be described thus: 24 hr. MIC bounds (turbid/clear wells). The conditions noted are these: Escherichia coli, 8x serial dilutions, bounds identical for F+ or F− cells.
[5] abbreviates: first EC50 block, mass concentration.
Setting [6] is: second block, mass concentration.

In brackets after ≈: the same amount, converted by molar mass. Like-named read-outs stand apart in the source and are kept apart here.

Turning to `O=P(O)(O)NP(=O)(O)O` [pNp, imidodiphosphate], the concentration for a half-maximal effect (EC50) in experiment [1] (setting [5]) is 0.063 µg/mL; in experiment [1] (first EC50 block), 0.000356 mM; in experiment [1] (setting [6]), 8000 µg/mL; in experiment [1] (second block), 43 mM; in experiment [2] (setting [5]), 105 µg/mL; in experiment [2] (first EC50 block) it was 0.593 ± 0.0035 mM. Besides, the concentration giving a half-maximal response (EC50) was determined as 6000 µg/mL in experiment [2] (setting [6]); 35 mM in experiment [2] (second block); 0.005 mM in experiment [3] (first EC50 block); 0.936 µg/mL in experiment [3] (setting [5]); 9 mM in experiment [3] (second block); 2000 µg/mL in experiment [3] (setting [6]). Moreover, the “Selectivities by EC50, Transconj.” value is on record as 6.7E−02 in experiment [1] (first EC50 block), 4.9E+00 in experiment [1] (second block), 1.1E+02 in experiment [2] (first EC50 block) and 4.0E−00 in experiment [2] (second block). For the same compound, the “Selectivities by EC50, Donors” value in experiment [2] (first EC50 block) is recorded as 1.7E+03; in experiment [2] (second block), 8.0E−01; in experiment [3] (first EC50 block), 1.5E+01; in experiment [3] (second block), 2.0E−01. In addition, the MIC in experiment [4] (clear wells after 24 hr. incubation, read-out: 24 hr. MIC bounds, upper) stood at 100 mM (≈ 17700 µg/mL); in experiment [4] (turbid wells after 24 hr. incubation, read-out: 24 hr. MIC bounds, lower), 12.5 mM (≈ 2210 µg/mL).
